Assay results reported in US5346910A (priority 1992, dated 1994).

Key:
[1] = tested on: aged monkey; settings: aged monkeys; cited from earlier work
[2] = target: muscarinic cholinergic receptor (rat brain cerebral cortex homogenate); format: binding; settings: 0.25 nM 3H-QNB, 25° C., 120 minutes
[3] = target: high affinity agonist conformation of the muscarinic cholinergic receptor (rat brain cerebral cortex homogenate); assay: [3H]-Cis-methyldioxolane (3H-CD) binding assay (high affinity); settings: 1.0 nM 3H-CD, 25° C., 120 minutes
[4] = tested on: SDAT patients; settings: compared to physostigmine; cited from earlier work

| SMILES | performance in aged monkey model of SDAT [1] | Ki [2] | Ki [3] | improvement in SDAT patients [4] |
| --- | --- | --- | --- | --- |
| O=C1CCCN1CC#CCN1CCCC1 [oxotremorine] | significant improvement in performance |  |  |  |
| CC1=CC(=O)N(CC#CCN(C)C)C1=O [1-[4-(Dimethylamino)-2-butynyl]-3-methyl-1H-pyrrole-2,5-dione] |  | 1.4 µM | 3.4 µM |  |
| CSC1CC(=O)N(CC#CCN2CCCC2)C1=O (centres unmarked) [3-(Methylthio)-1-[4-(1-pyrrolidinyl)-2-butynyl]-2,5-pyrrolidinedione] |  | 2.2 µM | 1.78 µM |  |
| COC(=O)C1=CCCN(C)C1 [arecoline] | significant improvement in performance |  |  | more consistent improvement |
| C[N+](C)(C)CC#CCN1C(=O)C=CC1=O [4-(2,5-Dihydro-2,5-dioxo-1H-pyrrol-1-yl)-N,N,N-trimethyl-2-butyne-1-aminium iodide] |  | 11 µM | 0.29 µM |  |
| CC1=CC(=O)N(CC#CCN2CCCC2)C1=O [3-Methyl-1-[4-(1-pyrrolidinyl)-2-butynyl]-1H-pyrrole-2,5-dione] |  | 0.2 µM | 0.53 µM |  |
| CSC1CC(=O)N(CC#CCN(C)C)C1=O (centres unmarked) [1-[4-(Dimethylamino)-2-butynyl]-3-(methylthio)-2,5-pyrrolidinedione] |  | > 100 µM | 1.6 µM |  |
| CN(C)CC#CCN1C(=O)C=CC1=O [1-[4-(Dimethylamino)-2-butynyl]-1H-pyrrole-2,5-dione] |  | 1.74 µM | 1.48 µM |  |
| CC1=CC(=O)N(CC#CC[N+](C)(C)C)C1=O [4-(2,5-Dihydro-3-methyl-2,5-dioxo-1H-pyrrol-1-yl)-N,N,N-trimethyl-2-butyne-1-aminium iodide] |  | 2.3 µM | 0.56 µM |  |
